{
  "source": "patent US5830433A",
  "about": "“Radiolabeled growth hormone secretagogue” (Merck & Co., Inc., priority 1996, dated 1998)",
  "test": "storage stability of the radioligand in solution",
  "assay_type": "physicochemical",
  "conditions": "trace hcl; stored at -20° C. as a solution in 15% methanol/water containing a trace of hydrochloric acid; read-out: stability, loss of radiochemical purity",
  "data": [
    {"smiles": "CC(C)(N)C(=O)N[C@H](COCc1ccccc1)C(=O)N1CCC2(CC1)CN([35S](C)(=O)=O)c1ccccc12", "note": "[[^35 S]-radioligand, [^35 S]N-[1(R)-[(1,2-Dihydro-1-methanesulfonylspiro[3H-indole-3,4'-piperdin]-1'-yl)carbonyl]-2-(phenylmethyloxy)ethyl]-2-amino-2-methylpropanamide]", "values": [
      {"measurement": "degraded at 730 h", "value": "< 0.5", "unit": "%"}
    ]}
  ]
}
